From ChEMBL document CHEMBL5291721, “A preclinical secondary pharmacology resource illuminates target-adverse drug reaction associations of marketed drugs” (Nat Commun, 2023) come the findings set out here.

Test [1] has as its target cGMP-inhibited 3',5'-cyclic phosphodiesterase 3A (Homo sapiens, UniProt Q14432). It counts as functional.
For the next test, the target named is Histamine H3 receptor (Homo sapiens, UniProt Q9Y5N1).
The target in a further test is Mu-type opioid receptor (Homo sapiens, UniProt P35372).
Chain of Mu-type opioid receptor (P35372 whole entry): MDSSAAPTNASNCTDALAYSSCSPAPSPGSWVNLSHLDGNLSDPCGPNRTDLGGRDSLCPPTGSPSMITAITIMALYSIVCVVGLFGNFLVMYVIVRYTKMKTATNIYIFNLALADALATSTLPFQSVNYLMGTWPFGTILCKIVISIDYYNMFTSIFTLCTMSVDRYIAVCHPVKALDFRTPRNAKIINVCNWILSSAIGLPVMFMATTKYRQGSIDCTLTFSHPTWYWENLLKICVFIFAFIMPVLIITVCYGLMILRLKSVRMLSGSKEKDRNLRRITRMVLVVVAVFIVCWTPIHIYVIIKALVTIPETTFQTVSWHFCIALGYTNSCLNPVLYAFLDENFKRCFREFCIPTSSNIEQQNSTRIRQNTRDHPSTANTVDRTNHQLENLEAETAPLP
The next test concerns the target T1, Adenosine receptor A3 (Homo sapiens, UniProt P0DMS8).
T1 sequence (P0DMS8 whole entry): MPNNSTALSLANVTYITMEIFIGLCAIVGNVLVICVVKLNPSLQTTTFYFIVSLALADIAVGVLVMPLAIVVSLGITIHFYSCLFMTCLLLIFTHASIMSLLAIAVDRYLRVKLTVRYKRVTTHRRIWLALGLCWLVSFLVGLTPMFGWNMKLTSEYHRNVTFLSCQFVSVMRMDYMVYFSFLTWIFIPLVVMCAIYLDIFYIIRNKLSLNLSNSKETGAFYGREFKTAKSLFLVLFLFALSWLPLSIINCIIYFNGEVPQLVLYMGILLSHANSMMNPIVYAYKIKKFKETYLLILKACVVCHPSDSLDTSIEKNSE

The target in another test is Prothrombin (Homo sapiens, UniProt P00734). It counts as functional.
The target of a further test is Acetylcholinesterase (Homo sapiens, UniProt P22303). It counts as functional.
Chain of Acetylcholinesterase (P22303 whole entry): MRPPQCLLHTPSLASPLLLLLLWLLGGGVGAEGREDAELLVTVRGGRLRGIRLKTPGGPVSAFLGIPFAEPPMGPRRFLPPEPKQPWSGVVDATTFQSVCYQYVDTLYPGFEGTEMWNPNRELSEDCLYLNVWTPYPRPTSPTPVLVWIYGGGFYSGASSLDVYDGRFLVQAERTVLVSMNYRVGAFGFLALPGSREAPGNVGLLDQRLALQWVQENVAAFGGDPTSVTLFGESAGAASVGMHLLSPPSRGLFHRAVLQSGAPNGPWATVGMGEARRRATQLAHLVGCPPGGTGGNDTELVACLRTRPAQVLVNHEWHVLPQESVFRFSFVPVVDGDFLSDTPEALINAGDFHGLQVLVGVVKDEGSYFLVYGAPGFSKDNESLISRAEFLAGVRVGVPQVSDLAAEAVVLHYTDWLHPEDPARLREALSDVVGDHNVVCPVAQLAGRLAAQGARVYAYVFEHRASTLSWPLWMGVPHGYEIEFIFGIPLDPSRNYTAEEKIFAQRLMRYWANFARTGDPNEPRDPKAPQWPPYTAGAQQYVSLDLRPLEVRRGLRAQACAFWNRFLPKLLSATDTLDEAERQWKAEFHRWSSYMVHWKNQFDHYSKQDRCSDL
The target of test [2] is T2, Prostaglandin G/H synthase 1 (Homo sapiens, UniProt P23219). It counts as functional.
T2 sequence (P23219 whole entry): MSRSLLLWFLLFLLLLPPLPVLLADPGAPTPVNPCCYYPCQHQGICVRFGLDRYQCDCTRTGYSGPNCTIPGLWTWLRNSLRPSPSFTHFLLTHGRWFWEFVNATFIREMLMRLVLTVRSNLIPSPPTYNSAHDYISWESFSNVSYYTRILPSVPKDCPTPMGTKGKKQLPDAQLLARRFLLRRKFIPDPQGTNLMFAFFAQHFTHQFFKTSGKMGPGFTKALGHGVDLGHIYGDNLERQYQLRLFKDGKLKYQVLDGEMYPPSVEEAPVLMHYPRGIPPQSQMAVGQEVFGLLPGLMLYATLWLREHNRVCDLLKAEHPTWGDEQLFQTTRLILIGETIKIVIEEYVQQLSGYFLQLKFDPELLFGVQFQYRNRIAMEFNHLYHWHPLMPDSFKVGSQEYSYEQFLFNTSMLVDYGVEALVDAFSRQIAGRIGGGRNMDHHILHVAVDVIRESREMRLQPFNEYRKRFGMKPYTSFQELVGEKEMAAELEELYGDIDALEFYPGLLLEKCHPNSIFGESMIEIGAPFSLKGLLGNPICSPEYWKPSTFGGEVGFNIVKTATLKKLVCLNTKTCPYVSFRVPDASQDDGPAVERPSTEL
Another test concerns the target T3, Thromboxane A2 receptor (Homo sapiens, UniProt P21731).
T3 sequence (P21731 whole entry): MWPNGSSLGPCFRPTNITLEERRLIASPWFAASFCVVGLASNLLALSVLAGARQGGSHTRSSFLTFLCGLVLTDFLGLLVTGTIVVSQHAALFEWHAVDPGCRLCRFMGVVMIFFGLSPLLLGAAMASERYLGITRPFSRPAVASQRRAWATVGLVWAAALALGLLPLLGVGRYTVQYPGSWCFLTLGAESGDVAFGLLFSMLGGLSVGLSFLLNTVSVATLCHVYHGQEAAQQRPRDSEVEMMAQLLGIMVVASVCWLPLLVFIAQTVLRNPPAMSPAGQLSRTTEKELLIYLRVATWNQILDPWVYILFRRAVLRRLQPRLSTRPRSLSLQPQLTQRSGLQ
It counts as functional, cell-based.

The target in test [3] is T4, Muscarinic acetylcholine receptor M2 (Homo sapiens, UniProt P08172).
T4 sequence (P08172 whole entry): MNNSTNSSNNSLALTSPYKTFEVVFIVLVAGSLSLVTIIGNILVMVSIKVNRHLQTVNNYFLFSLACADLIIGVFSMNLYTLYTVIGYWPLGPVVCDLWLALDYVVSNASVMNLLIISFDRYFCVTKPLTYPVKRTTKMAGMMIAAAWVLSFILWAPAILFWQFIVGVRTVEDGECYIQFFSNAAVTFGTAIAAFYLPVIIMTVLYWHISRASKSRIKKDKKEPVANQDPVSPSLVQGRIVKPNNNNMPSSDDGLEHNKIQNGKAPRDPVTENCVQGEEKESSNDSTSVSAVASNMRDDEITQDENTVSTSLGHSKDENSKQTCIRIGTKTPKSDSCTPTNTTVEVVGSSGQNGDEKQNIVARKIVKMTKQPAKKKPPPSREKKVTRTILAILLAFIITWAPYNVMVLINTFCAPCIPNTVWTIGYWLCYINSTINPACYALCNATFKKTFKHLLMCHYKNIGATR

In test [4] the target is T5, Amine oxidase [flavin-containing] A (Homo sapiens, UniProt P21397).
T5 sequence (P21397 whole entry): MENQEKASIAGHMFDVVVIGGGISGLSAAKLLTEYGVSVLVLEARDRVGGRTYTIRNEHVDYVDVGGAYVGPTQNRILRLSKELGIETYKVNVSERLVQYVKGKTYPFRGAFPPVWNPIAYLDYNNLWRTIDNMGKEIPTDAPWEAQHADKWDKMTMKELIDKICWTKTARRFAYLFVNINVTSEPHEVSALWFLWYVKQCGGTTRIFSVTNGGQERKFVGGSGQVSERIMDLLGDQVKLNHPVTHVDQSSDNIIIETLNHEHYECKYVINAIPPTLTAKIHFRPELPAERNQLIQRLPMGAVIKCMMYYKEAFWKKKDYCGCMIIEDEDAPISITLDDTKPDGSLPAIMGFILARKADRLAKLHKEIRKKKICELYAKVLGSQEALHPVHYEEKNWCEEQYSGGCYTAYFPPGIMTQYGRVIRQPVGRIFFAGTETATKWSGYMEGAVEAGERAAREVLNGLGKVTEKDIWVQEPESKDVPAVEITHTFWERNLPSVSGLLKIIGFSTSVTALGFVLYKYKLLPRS
It counts as functional.

The target in test [5] is T6, Alpha-2A adrenergic receptor (Homo sapiens, UniProt P08913).
T6 sequence (P08913 whole entry): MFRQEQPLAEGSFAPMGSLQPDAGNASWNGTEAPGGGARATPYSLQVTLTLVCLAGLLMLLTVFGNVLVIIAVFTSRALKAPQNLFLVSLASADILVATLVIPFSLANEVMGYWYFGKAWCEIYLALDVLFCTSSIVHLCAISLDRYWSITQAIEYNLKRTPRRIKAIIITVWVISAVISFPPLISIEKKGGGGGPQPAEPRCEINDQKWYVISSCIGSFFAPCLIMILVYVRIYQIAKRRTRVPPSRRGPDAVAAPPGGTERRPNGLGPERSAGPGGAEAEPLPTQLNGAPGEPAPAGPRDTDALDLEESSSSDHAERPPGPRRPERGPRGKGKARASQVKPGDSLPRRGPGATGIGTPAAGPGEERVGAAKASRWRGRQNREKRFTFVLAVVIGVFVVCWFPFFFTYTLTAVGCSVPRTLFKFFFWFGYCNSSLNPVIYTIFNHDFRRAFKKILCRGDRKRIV

The target in test [6] is 5-hydroxytryptamine receptor 2B (Homo sapiens, UniProt P41595). It counts as functional, cell-based.
Chain of 5-hydroxytryptamine receptor 2B (P41595 whole entry): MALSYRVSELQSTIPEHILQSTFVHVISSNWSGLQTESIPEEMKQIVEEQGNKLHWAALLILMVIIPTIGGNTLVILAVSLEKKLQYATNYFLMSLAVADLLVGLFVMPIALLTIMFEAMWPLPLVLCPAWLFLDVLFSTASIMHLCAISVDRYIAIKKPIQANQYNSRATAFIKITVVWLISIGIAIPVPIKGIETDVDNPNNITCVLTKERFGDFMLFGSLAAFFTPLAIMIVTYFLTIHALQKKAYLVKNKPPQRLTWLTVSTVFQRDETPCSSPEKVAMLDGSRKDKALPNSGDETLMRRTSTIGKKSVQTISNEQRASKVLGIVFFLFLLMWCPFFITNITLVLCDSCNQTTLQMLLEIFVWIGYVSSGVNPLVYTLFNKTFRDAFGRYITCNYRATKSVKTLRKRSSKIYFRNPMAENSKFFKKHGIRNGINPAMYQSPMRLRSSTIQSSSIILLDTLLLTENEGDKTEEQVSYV
Test [7] has as its target T2, Prostaglandin G/H synthase 1. It counts as functional. The source holds these as a separate data set.
In test [8] the target is Vascular endothelial growth factor receptor 2 (Homo sapiens, UniProt P35968). It counts as functional.
Chain of Vascular endothelial growth factor receptor 2 (P35968 whole entry): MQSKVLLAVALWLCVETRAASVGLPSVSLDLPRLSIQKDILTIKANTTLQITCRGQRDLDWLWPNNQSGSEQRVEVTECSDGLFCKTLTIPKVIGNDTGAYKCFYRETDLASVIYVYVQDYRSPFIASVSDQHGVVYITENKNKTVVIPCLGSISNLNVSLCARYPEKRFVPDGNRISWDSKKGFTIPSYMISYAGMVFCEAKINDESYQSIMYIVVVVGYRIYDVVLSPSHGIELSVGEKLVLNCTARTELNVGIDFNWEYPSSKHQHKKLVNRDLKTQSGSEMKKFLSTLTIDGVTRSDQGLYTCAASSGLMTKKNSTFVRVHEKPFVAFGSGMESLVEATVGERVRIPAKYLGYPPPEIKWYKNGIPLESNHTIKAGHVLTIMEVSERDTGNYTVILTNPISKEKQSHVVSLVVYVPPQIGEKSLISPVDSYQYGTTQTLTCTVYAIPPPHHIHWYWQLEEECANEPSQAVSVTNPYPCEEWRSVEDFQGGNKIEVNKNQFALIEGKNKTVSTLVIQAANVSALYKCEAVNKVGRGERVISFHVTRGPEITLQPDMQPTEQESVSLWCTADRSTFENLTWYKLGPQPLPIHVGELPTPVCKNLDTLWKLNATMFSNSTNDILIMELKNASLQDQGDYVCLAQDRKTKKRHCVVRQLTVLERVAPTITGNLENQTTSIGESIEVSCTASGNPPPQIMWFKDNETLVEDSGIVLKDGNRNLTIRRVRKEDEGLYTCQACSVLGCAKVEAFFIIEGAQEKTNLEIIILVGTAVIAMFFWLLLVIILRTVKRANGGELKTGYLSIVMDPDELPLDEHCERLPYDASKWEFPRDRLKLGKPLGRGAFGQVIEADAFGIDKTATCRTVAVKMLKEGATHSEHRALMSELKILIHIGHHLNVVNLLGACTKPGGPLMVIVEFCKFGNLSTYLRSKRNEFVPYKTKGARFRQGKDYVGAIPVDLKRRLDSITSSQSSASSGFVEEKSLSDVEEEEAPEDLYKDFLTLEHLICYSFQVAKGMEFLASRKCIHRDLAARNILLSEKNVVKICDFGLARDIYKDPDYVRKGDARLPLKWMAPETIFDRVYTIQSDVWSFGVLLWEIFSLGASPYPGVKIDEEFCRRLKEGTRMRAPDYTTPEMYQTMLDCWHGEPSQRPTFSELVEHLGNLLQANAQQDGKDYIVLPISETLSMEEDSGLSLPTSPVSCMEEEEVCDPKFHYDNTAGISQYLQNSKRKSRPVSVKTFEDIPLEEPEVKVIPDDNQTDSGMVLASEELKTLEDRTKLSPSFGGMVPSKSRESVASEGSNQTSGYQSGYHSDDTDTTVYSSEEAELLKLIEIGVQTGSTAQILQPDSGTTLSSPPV
Test [9] addresses Voltage-gated inwardly rectifying potassium channel KCNH2 (Homo sapiens, UniProt Q12809). It counts as functional. Particulars: read-out: AC50.
Also: assay procedure not described here.

Chain of Histamine H3 receptor (Q9Y5N1 whole entry): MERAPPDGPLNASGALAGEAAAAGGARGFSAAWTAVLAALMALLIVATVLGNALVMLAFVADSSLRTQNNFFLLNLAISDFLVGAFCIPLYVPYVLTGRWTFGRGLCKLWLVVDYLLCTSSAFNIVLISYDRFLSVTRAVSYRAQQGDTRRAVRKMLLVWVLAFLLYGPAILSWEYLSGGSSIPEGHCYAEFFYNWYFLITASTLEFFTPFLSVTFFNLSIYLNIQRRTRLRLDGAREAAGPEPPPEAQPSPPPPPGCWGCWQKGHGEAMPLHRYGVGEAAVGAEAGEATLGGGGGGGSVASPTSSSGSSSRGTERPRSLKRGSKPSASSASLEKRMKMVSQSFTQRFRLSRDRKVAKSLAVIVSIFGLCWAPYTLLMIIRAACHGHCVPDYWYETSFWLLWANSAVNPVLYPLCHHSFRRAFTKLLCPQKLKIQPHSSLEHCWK
Chain of Voltage-gated inwardly rectifying potassium channel KCNH2 (Q12809 whole entry): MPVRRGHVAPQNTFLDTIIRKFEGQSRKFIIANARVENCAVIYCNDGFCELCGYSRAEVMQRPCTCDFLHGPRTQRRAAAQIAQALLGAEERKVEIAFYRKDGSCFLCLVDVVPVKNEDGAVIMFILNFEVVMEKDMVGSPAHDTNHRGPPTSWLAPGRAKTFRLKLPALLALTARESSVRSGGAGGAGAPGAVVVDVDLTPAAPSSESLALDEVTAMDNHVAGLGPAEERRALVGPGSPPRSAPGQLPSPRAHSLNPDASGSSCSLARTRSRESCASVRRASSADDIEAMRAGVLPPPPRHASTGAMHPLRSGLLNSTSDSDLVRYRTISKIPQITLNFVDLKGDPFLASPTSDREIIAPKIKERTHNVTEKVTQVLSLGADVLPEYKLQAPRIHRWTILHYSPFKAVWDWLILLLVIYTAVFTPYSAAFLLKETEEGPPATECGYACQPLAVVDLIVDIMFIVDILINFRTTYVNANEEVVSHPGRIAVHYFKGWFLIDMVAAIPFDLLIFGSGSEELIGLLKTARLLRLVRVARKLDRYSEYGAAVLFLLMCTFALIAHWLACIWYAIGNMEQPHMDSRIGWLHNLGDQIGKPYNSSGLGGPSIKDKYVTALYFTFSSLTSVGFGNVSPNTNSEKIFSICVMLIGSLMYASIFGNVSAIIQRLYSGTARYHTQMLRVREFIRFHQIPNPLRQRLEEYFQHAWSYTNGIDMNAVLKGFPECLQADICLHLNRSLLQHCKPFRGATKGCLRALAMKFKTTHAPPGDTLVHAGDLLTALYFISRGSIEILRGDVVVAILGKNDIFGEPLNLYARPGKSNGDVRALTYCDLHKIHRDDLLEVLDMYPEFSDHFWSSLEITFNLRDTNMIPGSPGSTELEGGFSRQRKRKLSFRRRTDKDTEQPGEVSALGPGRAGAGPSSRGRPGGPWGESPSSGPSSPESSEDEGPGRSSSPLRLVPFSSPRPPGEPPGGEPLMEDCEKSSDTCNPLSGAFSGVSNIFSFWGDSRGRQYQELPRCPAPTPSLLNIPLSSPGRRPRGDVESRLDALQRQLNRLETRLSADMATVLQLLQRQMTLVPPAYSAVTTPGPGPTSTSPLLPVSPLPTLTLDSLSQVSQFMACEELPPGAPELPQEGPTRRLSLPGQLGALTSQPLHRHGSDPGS

What is called AC50 is the midpoint of the concentration-response curve, whichever way the signal moves. Consider `OC(c1ccccc1)(c1ccccc1)C12CC[N+](CCOCc3ccccc3)(CC1)CC2`, for which the AC50 in test [1] is greater than 30 µM; at Histamine H3 receptor, greater than 30 µM; on Mu-type opioid receptor, 1.07 µM; at Adenosine receptor A3 it was greater than 30 µM; at Prothrombin, greater than 30 µM; at Acetylcholinesterase, greater than 30 µM. Besides, the AC50 was greater than 30 µM in test [2]; greater than 30 µM at Thromboxane A2 receptor; 0.0044 µM in test [3]; greater than 30 µM in [4]; greater than 30 µM in [5]; greater than 30 µM in test [6]. The compound further had an AC50 in [7] greater than 30 µM.

Take `C[S+](CC[C@H](N)C(=O)[O-])C[C@H]1O[C@@H](n2cnc3c(N)ncnc32)[C@H](O)[C@@H]1O` (stereo partly specified) [ADEMETIONINE]: the AC50 in [1] is greater than 30 µM; on Histamine H3 receptor it was greater than 30 µM; at Mu-type opioid receptor, greater than 30 µM; in test [8] it was 19.4 µM; on Adenosine receptor A3, 0.174 µM; on Prothrombin, greater than 30 µM. The AC50 (on Acetylcholinesterase; in [2]; on Thromboxane A2 receptor; in test [3]; in test [4]; in test [5]) was greater than 30 µM throughout. Besides, the half-maximal activity concentration (AC50) in test [6] and in [7] was greater than 30 µM each time.

On to `C=CCN1C[C@H](C(=O)N(CCCN(C)C)C(=O)NCC)C[C@@H]2c3cccc4[nH]cc(c34)C[C@H]21` [CABERGOLINE], for which the AC50 (in [1]; on Histamine H3 receptor; at Mu-type opioid receptor; in [8]; on Adenosine receptor A3; at Prothrombin) was greater than 30 µM each time. The AC50 in test [9] is 7.68 µM; on Acetylcholinesterase, 11.4 µM; in test [2], greater than 30 µM; at Thromboxane A2 receptor, greater than 30 µM; in [3], greater than 30 µM; in test [4], greater than 30 µM. Moreover, the concentration at half-maximal activity (AC50) in [6] is 0.0032 µM; in test [7], greater than 30 µM.

Take `COc1ccc2c(c1)N(C[C@H](C)CN(C)C)c1ccccc1S2` [LEVOMEPROMAZINE]: the AC50 in test [1] is greater than 30 µM; at Histamine H3 receptor, greater than 30 µM; at Mu-type opioid receptor, 13.5 µM; in test [8], greater than 30 µM; on Adenosine receptor A3, greater than 30 µM; on Prothrombin, greater than 30 µM. For the same compound, the AC50 in test [9] was 11 µM; at Acetylcholinesterase, greater than 30 µM; in test [2], 11.3 µM; at Thromboxane A2 receptor, greater than 30 µM; in test [3] it was 1.68 µM; in test [4] it was greater than 30 µM. The AC50 in test [6] and in test [7] was greater than 30 µM in each case.

Take `O=[N+]([O-])c1cn2c(n1)OC[C@@H](OCc1ccc(OC(F)(F)F)cc1)C2` [PRETOMANID]: the concentration at half-maximal activity (AC50) (in [1]; on Histamine H3 receptor; at Mu-type opioid receptor; on Adenosine receptor A3; on Prothrombin; on Acetylcholinesterase) was greater than 30 µM each time. Besides, the AC50 (in [2]; on Thromboxane A2 receptor; in [3]; in [4]; in test [5]; in [6]) was greater than 30 µM in each case. The same compound displayed an AC50 in [7] greater than 30 µM.

For `O=C(Oc1ccc2c(c1)CCCN2C(=O)C(Cl)Cl)c1ccco1` [QUINFAMIDE], the AC50 is greater than 30 µM in test [1]; greater than 30 µM on Histamine H3 receptor; greater than 30 µM on Mu-type opioid receptor; 25.6 µM at Adenosine receptor A3; greater than 30 µM on Prothrombin; greater than 30 µM in test [9]. In addition, the AC50 (at Acetylcholinesterase; in test [2]; on Thromboxane A2 receptor; in test [3]; in test [4]; in test [5]) was greater than 30 µM throughout. Moreover, the AC50 in [6] and in test [7] was greater than 30 µM throughout.

As to `Nc1nc2nc[nH]c2c(=S)[nH]1` [THIOGUANINE], the AC50 (in test [1]; on Histamine H3 receptor; on Mu-type opioid receptor; on Adenosine receptor A3; on Prothrombin; on Acetylcholinesterase) was greater than 30 µM each time. Moreover, the AC50 in test [2] is 0.81 µM; at Thromboxane A2 receptor, greater than 30 µM; in test [3] it was greater than 30 µM; in test [4], greater than 30 µM; in test [5] it was greater than 30 µM; in test [6], greater than 30 µM. Also, in test [7], half-maximal activity (AC50) was put at 1.32 µM.

`COC1=C(OC)C(=O)C(C/C=C(\C)CC/C=C(\C)CC/C=C(\C)CC/C=C(\C)CC/C=C(\C)CC/C=C(\C)CC/C=C(\C)CC/C=C(\C)CC/C=C(\C)CCC=C(C)C)=C(C)C1=O` [UBIDECARENONE]: the half-maximal activity concentration (AC50) (in test [1]; at Histamine H3 receptor; on Mu-type opioid receptor; on Prothrombin; in [9]; on Acetylcholinesterase) was greater than 30 µM in each case. Further, the AC50 (in test [2]; at Thromboxane A2 receptor; in test [3]; in [4]; in [5]; in [6]) was greater than 30 µM in each case. The AC50 in test [7] is greater than 30 µM.

Consider `CC[C@]1(O)C[C@H]2CN(CCc3c([nH]c4ccccc34)[C@@](C(=O)OC)(c3cc4c(cc3OC)N(C=O)[C@H]3[C@@](O)(C(=O)OC)[C@H](OC(C)=O)[C@]5(CC)C=CCN6CC[C@]43[C@@H]65)C2)C1` [VINCRISTINE], for which the AC50 (in test [1]; at Histamine H3 receptor; on Mu-type opioid receptor; at Adenosine receptor A3; at Prothrombin; at Acetylcholinesterase) was greater than 30 µM throughout. Further, the AC50 was 11.2 µM in [2]; greater than 30 µM at Thromboxane A2 receptor; greater than 30 µM in test [3]; greater than 30 µM in [4]; greater than 30 µM in test [5]; greater than 30 µM in test [6]. The compound further yielded an AC50 in test [7] of 5.73 µM.
